Where a name gives a salt, the structure may show the parent alone. Read-outs that look alike come from different tables or passages of the source.
How the values were obtained:
[1] = test system: CD-1, BALB/c and C57BL/6 mice; conditions: 2.0 g/kg ip; for locomotor stimulation during the first time block: versus saline control
Protocol: The subjects were 12 male mice of each of the three strains: CD-1, BALB/c, and C57BL/6 obtained from Charles River Laboratories.
The force plate actometer was used as described above.
The mice were subdivided into groups of 6 each. One group received saline, and the corresponding other group of that strain received a dose of 2.0 g/kg of ethanol in a 20% aqueous solution. This was the first exposure to the chamber for these mice. Within 1-2 min of the ip injection the mice were placed in the chamber and behavior was recorded for 30 min.
The distance data were divided into 6 blocks of 5 min each, and analysis of variance (3 strains×saline vs drug×6 time blocks) was used to establish the presence of effects.

male Sprague-Dawley rats = experiment: Instrument-scored stereotypies induced by d-amphetamine in rats (force plate actometer); type: in vivo, rat
Protocol: The subjects were male Sprague-Dawley rats about 4 months old at the time of the treatments. Nine rats received amphetamine injections and 8 separate rats got physiological saline injections. These rats weighed about 350 g each and were obtained from Harlan Co., Indianapolis, Ind.
The apparatus was four concurrently operating force plate actometers as described previously.
Rats in the amphetamine group were injected (ip.) with d-amphetamine sulfate 3.0 mg/kg 15 min before being placed in the chambers for 30 min of recording. Amphetamine injections were administered on three separate occasions spaced 2 weeks apart for each amphetamine group rat. Data from the 3rd session, when stereotypies were expected to be intense, were used for the analyses. Rats in the saline group received ip injections of physiological saline before recording sessions on three separate days. Data from the 3rd day were used for comparison with the amphetamine group.
Data were analyzed with the computer program OFFLINEP.PAS (FIGS. 18A-18C) and with additional techniques available in Systat. The program OFFLINEP.PAS identified bouts of low mobility, defined as periods of no locomotion outside of a 30 mm diameter circle for 10.24 s. Corresponding records of the force variation during the same time frame were stored so that the rhythmic components of behavior could be quantified with Fourier analysis. The basic concept was to define stereotypy as the intensity and rhythm of behavior occurring in “one place” under the influence of a stereotypy-inducing dose of amphetamine and to compare these measures to animals “staying in one place” but not under the influence of a drug.

[2] = test system: unilaterally 6-hydroxydopamine lesioned and sham rats; experiment: Rotational behavior induced by d-amphetamine in rats unilaterally lesioned with 6-hydroxydopamine (Parkinsonism model); type: in vivo, rat; conditions: d-amphetamine 3.0 mg/kg ip
Protocol: These rats met the same specifications as those used in Examples 1 and 2.
The apparatus was the force plate actometer with the cylindrical insert installed as depicted in FIG. 20. This insert presents the rat with a circular arena in which it can move. Note that neither harness nor tether was used. The rotations were calculated by the computer from the position coordinates derived from the force plate.
Rats were lesioned with the neurotoxin 6-hydroxydopamine. Surgery was performed under ketamine plus xylazine anesthesia. A Kopf stereotaxic instrument was used to guide the injection cannula to the substantia nigra pars compacta. A sham surgery group received the same surgical procedure but saline instead of toxin. About 2 weeks after surgery and at two week intervals rats received three separate injections of d-amphetamine (3.0 mg/kg, ip, 15 min prior to recording sessions). Data shown here were from one control rat and one lesioned rat for the third drug treatment. Data were analyzed with the OFFLINEP.PAS program (FIGS. 18A-18C).

[3] = test system: BALB/c, C57BL/6 and CD-1 mice; experiment: Mouse strain differences in response to daily treatment with d-amphetamine (force plate actometer); type: in vivo
Protocol: Male mice from Charles River Laboratories. BALB/c (n=32), C57BL/6 (n=32), and CD-1 (an outbred strain, n=32), were about 10 weeks old when the treatments began.
Four currently operating force plate chambers were used (the cylindrical insert was not present).
For each type of mouse, 4 dose groups were formed so that 8 mice of each strain received either saline, 1.0, 2.5 or 5.0 mg/kg d-amphetamine. On five consecutive days the mice received ip injections 1-2 min before being placed in the recording chambers for 30 min. Immediately before the drug session each mouse received a 30-min recording session preceded by a saline injection.
Data were analyzed with a version of OFFLINEP.PAS that divided the session into 9 intervals of 3 min and 24.8 s, instead of 45 frames as in the studies described in the preceding Examples. However, some graphic analyses were carried out with 45 frames. Analysis of variance was used to assess the effects of strain, dose, time within a session, and days of treatment (i.e., a 3×4×9×5 factorial design).

BALB/c and C57BL/6 mice = experiment: Wall rearing of mice counted by the force plate actometer algorithm; type: in vivo, mouse; conditions: amphetamine 2.5 mg/kg, 30-min session
Source text: The preferred force plate actometer of this invention provides data that, when appropriately filtered and processed, provides estimates of the number of wall rears that an animal makes. This is of importance in pharmacology and behavioral genetics studies because some drugs are known to suppress rearing, and genetic endowment influences mouse rearing behavior. It is possible to detect wall rearing because when the mouse rears on hind legs and presses its forepaws against the side of the enclosure a substantial proportion of its body weight is transferred to the wall which is suspended above the force plate. […] Data from four chambers are concurrently expressed as the smoothed Fz values, and these are processed in a stream from the beginning of the session to the end of the session. The rears are quantified according to occurrence, intensity, duration of the rear, and time between the rears.
The program was validated by comparing the results from a human observer viewing video tapes taken from 30-min sessions of force plate recording for two mice: one BALB/c and one C57BL/6 mouse, two very genetically different mice. In terms of number of rears for the BALB/c mouse the video scored and computer scored wall rears were correlated +0.842 across 30 1-min blocks of the session. […]

male Sprague Dawley rats = experiment: Quantification of harmaline-induced tremor in rats (force plate actometer); type: in vivo, rat
Protocol: Thirty-two male Sprague Dawley rats from Harlan Co, Indianapolis, Ind., were studied.
The apparatus was the force plate actometer, described above, with no adjustments or modifications. If one were to use the instrument primarily for tremor studies, it would be possible to “tune” it for such purposes. For example, sessions of recording shorter than 30 min may be preferred and a sampling rate of 100 Hz or more may be desirable.
The rats were divided into 4 separate groups of 8 rats each. Separate groups received different doses of Harmaline hydrochloride as follows: 0.0 (saline), 4.0, 8.0, and 16.0 mg/kg, ip, 1-2 minutes before being placed in the recording chamber.
Data from the 30-min sessions were broken into 45 equal-length intervals of 40.96 s (or 2048 samples at a sampling rate of 50 Hz). […] Then, a tremor index was computed for each power spectrum. The tremor index was the difference between the average power in the 0.02-4.980 Hz frequency band and the 5.005-15.015 Hz frequency band of each power spectrum. This calculation emphasizes the peaking of the spectrum in the 5-15 Hz frequency band regardless of the absolute power level of the spectrum. A session average of the tremor index was obtained for each rat. Dose-effects statistical analyses were performed with one-way analysis of variance.

[4] = 3.0 mg/kg ip, Fourier analysis, FIG. 3

## CCO [ethanol]
[1]; ANOVA F(2,30)=3.257, p=0.05
  distance traveled, strain-by-ethanol interaction: significant strain-by-ethanol interaction
[1]; ANOVA F(5,150)=7.629, p<0.001
  distance traveled, time-by-ethanol interaction: significant-time-by-ethanol interaction
[1]; BALB/c strain
  locomotor stimulation during the first time block: greater amount of ethanol related locomotor stimulation
[1]; BALB/c, early in session
  proportional increase in activity, BALB/c versus other strains: greatest proportional increase in activity
[1]; CD-1 strain
  locomotor stimulation during the first time block: least stimulation
[1]; three mouse strains, 30 min in 5-min blocks, FIG. 17
  distance traveled versus saline treated mice: initially stimulated

## C[C@H](N)Cc1ccccc1 [amphetamine, d-amphetamine sulfate]
Male Sprague-Dawley rats; 3.0 mg/kg ip 15 min before 30-min session, 3rd injection, FIG. 1
  number of low mobility bouts per frame versus saline control: comparable amounts of low mobility bouts
Male Sprague-Dawley rats; 3.0 mg/kg ip, 3rd injection, FIG. 2
  stereotypy score (activity during low mobility bouts) versus saline control: very active
Male Sprague-Dawley rats; 3.0 mg/kg ip, 3rd injection, n=9
  visual observation of stereotypies on removal from the chamber: all nine rats were engaged in classical nose poking, sniffing, and head-weaving stereotypies
Male Sprague-Dawley rats; 3.0 mg/kg ip, FIG. 3 versus FIG. 4, controls show no 10-Hz peak
  difference in spectral power, amphetamine rats above saline controls: 10-20 db
Male Sprague-Dawley rats; [4]
  frequency range of strong rhythmicity in power spectra of low mobility bouts: 8-11 Hz
  low frequency power in power spectra of low mobility bouts: distinctive lack of low frequency power below about 0.5 Hz
[2]; one 6-OHDA lesioned rat, FIG. 8
  rotational behavior, movement tracings: robust rotational behavior
[2]; one 6-OHDA lesioned rat, third treatment, FIG. 10
  rotations to the right in 30-min session: 62 rotations
[2]; one 6-OHDA lesioned rat, third treatment, FIG. 12
  bouts of high activity with low mobility (stereotypy score): four
[2]; one unlesioned control rat, FIG. 7
  locomotion, movement tracings: very little locomotion
[2]; one unlesioned control rat, frame 14 to end of session, FIG. 11
  stereotypy score: 250-300
[2]; one unlesioned control rat, third treatment, FIG. 9
  leftward rotations at the beginning of the session: 12 rotations
[3]; 2.5 mg/kg ip, CD-1, C57BL/6, BALB/c, FIG. 15
  distance traveled, ranking of strains: CD-1's were stimulated the most and the BALB/c's the least
[3]; BALB/c mouse, the two highest doses (2.5 and 5.0 mg/kg)
  spatial statistic, restriction of movements in space: greater tendency to restrict its movements in space
[3]; C57BL/6 mouse, 2.5 mg/kg ip
  distance traveled across the 5 treatment days: showed a sensitization effect
[3]; one C57BL/6 mouse, fifth injection of 5.0 mg/kg ip, FIG. 14 versus saline FIG. 13
  movement trajectories (locomotion): locomotor stimulating effect of the drug is apparent
[3]; three mouse strains, saline, 1.0, 2.5, 5.0 mg/kg ip, 5 days, ANOVA dose F(3,84)=73.787, p<0.001, strain-by-dose F(6,84)=9.293, p<0.001, FIG. 15
  distance traveled, effect of dose: significant effects
[3]; three mouse strains, saline, 1.0, 2.5, 5.0 mg/kg ip, ANOVA dose F(3,84)=38.192, p<0.001, strain-by-dose F(6,84)=4.991, p<0.001, FIG. 16
  spatial statistic (spatial index), effect of dose: significant effects
BALB/c and C57BL/6 mice; BALB/c mice, untreated mean 92.5 rears
  mean number of wall rears: 3.75 rears/session
BALB/c and C57BL/6 mice; C57BL/6 mice, untreated mean 70.8 rears
  mean number of wall rears: 3.5 rears/session

## COc1ccc2c3c([nH]c2c1)C(C)=NCC3.Cl [harmaline, Harmaline hydrochloride]
Male Sprague Dawley rats; rats, 0, 4.0, 8.0, 16.0 mg/kg ip, session average, one-way ANOVA F (3,28)=5.090, p=0.006, FIG. 6
  effect of dose on tremor index: statistically significant
Male Sprague Dawley rats; rats, 0-16.0 mg/kg ip, F(2,28)=3.222, p=0.038
  latency to the first bout of low mobility: significantly shortened
Male Sprague Dawley rats; rats, 0-16.0 mg/kg ip, FIG. 6
  shape of the dose-effect function of the tremor index: log linear
Male Sprague Dawley rats; rats, 0-16.0 mg/kg ip, same session, F(3,28)=6.514, p=0.002
  effect on locomotor activity: dose-relatedly suppressed locomotor activity
Male Sprague Dawley rats; rats, the two higher doses (8.0 and 16.0 mg/kg ip), one rat per dose, FIG. 5
  peaking in the power spectra of Fz force: pronounced

— patent publication US6601010B1 (priority 2000, dated 2003)
